Read-outs that look alike come from different tables or passages of the source.
Experiments:
pAKT in BT474 cells = test: Cell-based pAKT HTRF assay in BT474 cells; details: BT474 cells, 4 hr incubation, read-out: pAKT inhibition IC50 in BT474 cells
Summary of the method: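 Cells grown in DMEM with 10% FBS were exposed to compounds for 4 hr in 0.25% DMSO, using a 9-point, 3-fold dilution series that starts at 3 μM. Lysates were incubated with d2 and Eu Cryptate antibodies for 4–24 h at room temperature, and HTRF was read at 615 nm emission.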

[1] = biological target: Cys242 in human PIK3CA (157-299) (Homo sapiens (Human), UniProt P42336); test: Covalent modification assay using MALDI-TOF MS; type: biochemical; details: 4 h reaction time point; 1 μM protein target, 1:5 protein to compound ratio (compounds 853-1279)
Summary of the method: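 PIK3CA (157-299), 3.33 or 1 μM in 20 mM HEPES, 150 mM NaCl, 2 mM MgCl2, pH 7.3, was incubated with compound at room temperature in the dark for 15 min, 30 min, 2 h or 4 h. Linear MALDI-TOF read-out; % modification = adduct peak height over summed heights of all protein species.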

Sequence of Cys242 in human PIK3CA (157-299) (P42336 157-299): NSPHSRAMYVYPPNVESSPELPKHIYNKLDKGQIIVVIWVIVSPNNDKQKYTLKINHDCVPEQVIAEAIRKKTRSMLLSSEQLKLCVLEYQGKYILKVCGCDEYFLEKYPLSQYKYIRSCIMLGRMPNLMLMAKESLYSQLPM

SMILES	IC50 (pAKT in BT474 cells; Compounds 10-999) [nM]	IC50 (pAKT in BT474 cells; Compounds 1000-1279) [nM]	IC50 (pAKT in BT474 cells; Homo sapiens, BT-474, Compounds 1000-1279) [nM]	% of modification [1]
C=CC(=O)N1CCc2nc(-c3nc(-c4ccc(=O)n(C)c4)c4ccsc4c3-c3c(F)cc(F)cc3OCCOC)sc2C1 [Compound 997]	< 100	–	–	A (percent of modification of PIK3CA protein ≥75%)
C=CC(=O)N1CCc2nc(-c3nc(-c4ccc5c(c4)NC(=O)C5)c4ccsc4c3-c3c(F)cc(F)cc3OCCOC)sc2C1 [Compound 1003]	–	< 100	–	A (percent of modification of PIK3CA protein ≥75%)
C=CC(=O)N1CCn2nc(-c3nc(N4CC5(CC(C(=O)NC)C5)C4)c4ccsc4c3-c3c(F)cc(F)cc3OCCOC)cc2[C@H]1C [Compound 1012, 2-((S)-6-((R)-5-acryloyl-4-methyl-4,5,6,7-tetrahydropyrazolo[1,5-a]pyrazin-2-yl)-7-(2,4-difluoro-6-(2-methoxyethoxy)phenyl)thieno[3,2-c]pyridin-4-yl)-N-methyl-2-azaspiro[3.3]heptane-6-carboxamide]	–	–	< 100	A (percent of modification of PIK3CA protein ≥75%)
C=CC(=O)N1CCn2nc(-c3nc(N4CC5(CNC(=O)C5)C4)c4ccsc4c3-c3c(F)cc(F)cc3OCCOC)cc2C1C (stereo not shown) [Compound 1013]	–	100 to 1000	–	A (percent of modification of PIK3CA protein ≥75%)
C=CC(=O)N1CCn2nc(-c3nc(-c4ccc(CC(=O)NC)cc4)c4ccsc4c3-c3c(F)cc(F)cc3OCCOC)cc2C1C (stereo not shown) [Compound 1017]	–	< 100	–	A (percent of modification of PIK3CA protein ≥75%)
C=CC(=O)N1CCn2nc(-c3nc(-c4cccc(=O)n4C)c4ccsc4c3-c3c(F)cc(F)cc3OCCOC)cc2C1C (stereo not shown) [Compound 1020]	–	< 100	–	A (percent of modification of PIK3CA protein ≥75%)
C=CC(=O)N1CCc2cc(-c3nc(-c4cnc5c(cnn5C)c4)c4ccsc4c3-c3c(F)cc(F)cc3OCCOC)nn2CC1 [Compound 1023]	–	< 100	–	A (percent of modification of PIK3CA protein ≥75%)
C=CC(=O)N1CCn2nc(-c3nc(-c4cnnc(C5CC5)c4)c4ccsc4c3-c3c(F)cc(F)cc3OCCOC)cc2C1C (stereo not shown) [Compound 1030]	–	< 100	–	A (percent of modification of PIK3CA protein ≥75%)
C=CC(=O)N1CCn2nc(-c3nc(-c4cnn(C5CN(C)C5)c(=O)c4)c4ccsc4c3-c3c(F)cc(F)cc3OCCOC)cc2C1C (stereo not shown) [Compound 1035]	–	< 100	–	A (percent of modification of PIK3CA protein ≥75%)
C=CC(=O)N1CCn2nc(-c3nc(N4CC(CC(=O)N(C)C)C4)c4ccsc4c3-c3c(F)cc(F)cc3OCCOC)cc2C1C (stereo not shown) [Compound 1039]	–	> 1000	–	A (percent of modification of PIK3CA protein ≥75%)
C=CC(=O)N1CCn2nc(-c3nc(-c4ccc(C5(F)CN(C)C5)cc4)c4ccsc4c3-c3c(F)cc(F)cc3OCCOC)cc2C1C (stereo not shown) [Compound 1044]	–	< 100	–	A (percent of modification of PIK3CA protein ≥75%)
C=CC(=O)N1CCn2nc(-c3nc(-c4cnnc(N5CCN(C)CC5)c4)c4ccsc4c3-c3c(F)cc(F)cc3OCCOC)cc2C1C (stereo not shown) [Compound 1045]	–	< 100	–	A (percent of modification of PIK3CA protein ≥75%)
C=CC(=O)N1CCn2nc(-c3nc(-c4ccc(N5CCN(C)CC5)nc4)c4ccsc4c3-c3c(F)cc(F)cc3OCCOC)cc2C1C (stereo not shown) [Compound 1048]	–	< 100	–	A (percent of modification of PIK3CA protein ≥75%)
C=CC(=O)N1CCc2nc(-c3nc(-c4ccc5nn(C)cc5c4)c4ccsc4c3-c3c(F)cc(F)cc3OCCO)sc2C1 [Compound 1053]	–	< 100	–	A (percent of modification of PIK3CA protein ≥75%)
C=CC(=O)N1CCn2nc(-c3nc(N4CC5(CCN(C)C5)C4)c4ccsc4c3-c3c(F)cc(F)cc3OCCOC)cc2C1C (stereo not shown) [Compound 1054]	–	100 to 1000	–	C (25%≤percent of modification <50%)
C=CC(=O)N1CCn2nc(-c3nc(-c4ccc(CCN(C)C)cc4)c4ccsc4c3-c3c(F)cc(F)cc3OCCOC)cc2C1C (stereo not shown) [Compound 1060]	–	< 100	–	A (percent of modification of PIK3CA protein ≥75%)
C=CC(=O)N1CCn2nc(-c3nc(-c4cccc(CN(C)C)c4)c4ccsc4c3-c3c(F)cc(F)cc3OCCOC)cc2C1C (stereo not shown) [Compound 1061]	–	< 100	–	A (percent of modification of PIK3CA protein ≥75%)
C=CC(=O)N1CCn2nc(-c3nc(-c4ccc(OCCN5CC(F)(F)C5)cc4)c4ccsc4c3-c3c(F)cc(F)cc3OCCOC)cc2C1C (stereo not shown) [Compound 1062]	–	< 100	–	A (percent of modification of PIK3CA protein ≥75%)
C=CC(=O)N1CCn2nc(-c3nc(-c4cc5c(cc4OC)C(=O)NC5)c4ccsc4c3-c3c(F)cc(F)cc3OCCOC)cc2[C@H]1C [Compound 1063]	–	< 100	–	A (percent of modification of PIK3CA protein ≥75%)
C=CC(=O)N1CCn2nc(-c3nc(N4CC5CCC(C4)N5C(C)=O)c4ccsc4c3-c3c(F)cc(F)cc3OCCOC)cc2C1C (stereo not shown) [Compound 1064]	–	100 to 1000	–	C (25%≤percent of modification <50%)

Continued, in another order:

IC50 (pAKT in BT474 cells; Compounds 10-999) [nM]	IC50 (pAKT in BT474 cells; Compounds 1000-1279) [nM]	IC50 (pAKT in BT474 cells; Homo sapiens, BT-474, Compounds 1000-1279) [nM]	SMILES	% of modification [1]
< 100	–	–	C=CC(=O)N1CCn2nc(-c3nc(-c4ccc5c(c4)CCN(C)CC5)c4ccsc4c3-c3c(F)cc(F)cc3OCCOC)cc2C1C (stereo not shown) [Compound 996]	A (percent of modification of PIK3CA protein ≥75%)
–	> 1000	–	C=CC(=O)N1CCc2cc(-c3nc(-c4cnc5c(c4)CNC(=O)C5)c4ccsc4c3-c3c(F)cc(F)cc3OCCOC)nn2CC1 [Compound 1005]	D (percent of modification <25%)
–	< 100	–	C=CC(=O)N1CCc2cc(-c3nc(-c4ccc5c(c4)CNC(=O)C5)c4ccsc4c3-c3c(F)cc(F)cc3OCCOC)nn2CC1 [Compound 1024]	A (percent of modification of PIK3CA protein ≥75%)
–	< 100	–	C=CC(=O)N1CCc2cc(-c3nc(-c4ccc5c(c4)C(=O)NC5)c4ccsc4c3-c3c(F)cc(F)cc3OCCOC)nn2CC1 [Compound 1025]	A (percent of modification of PIK3CA protein ≥75%)
–	< 100	–	C=CC(=O)N1CCc2cc(-c3nc(-c4ccc5cn(C)nc5c4)c4ccsc4c3-c3c(F)cc(F)cc3OCCOC)nn2CC1 [Compound 1027]	A (percent of modification of PIK3CA protein ≥75%)
–	< 100	–	C=CC(=O)N1CCn2nc(-c3nc(-c4cnn(C5CN(C)C5)c4)c4ccsc4c3-c3c(F)cc(F)cc3OCCOC)cc2C1C (stereo not shown) [Compound 1029]	A (percent of modification of PIK3CA protein ≥75%)
–	100 to 1000	–	C=CC(=O)N1CCn2nc(-c3nc(-c4ccc(=O)n(C5CN(C)C5)c4)c4ccsc4c3-c3c(F)cc(F)cc3OCCOC)cc2C1C (stereo not shown) [Compound 1031]	B (50%<percent of modification <75%)
–	> 1000	–	C=CC(=O)N1CCc2nc(-c3nc(-c4ccc5c(cnn5C)c4)c4ccsc4c3-c3c(F)cc(F)cc3OCCO)sc2C1 [Compound 1032]	D (percent of modification <25%)
–	< 100	–	C=CC(=O)N1CCn2nc(-c3nc(-c4cc(F)c(=O)n(CC(F)F)c4)c4ccsc4c3-c3c(F)cc(F)cc3OCCOC)cc2C1C (stereo not shown) [Compound 1036]	A (percent of modification of PIK3CA protein ≥75%)
–	< 100	–	C=CC(=O)N1CCn2nc(-c3nc(-c4cnc(N(C)C)nc4)c4ccsc4c3-c3c(F)cc(F)cc3OCCOC)cc2C1C (stereo not shown) [Compound 1037]	A (percent of modification of PIK3CA protein ≥75%)
–	< 100	–	C=CC(=O)N1CCn2nc(-c3nc(-c4ccn5ccnc5c4)c4ccsc4c3-c3c(F)cc(F)cc3OCCOC)cc2C1C (stereo not shown) [Compound 1040]	A (percent of modification of PIK3CA protein ≥75%)
–	< 100	–	C=CC(=O)N1CCn2nc(-c3nc(-c4cccc(OCCN(C)C)c4)c4ccsc4c3-c3c(F)cc(F)cc3OCCOC)cc2C1C (stereo not shown) [Compound 1046]	A (percent of modification of PIK3CA protein ≥75%)
–	< 100	–	C=CC(=O)N1CCc2nc(-c3nc(-c4ccc5c(c4)CNC5=O)c4ccsc4c3-c3c(F)cc(F)cc3OCCO)sc2C1 [Compound 1052]	A (percent of modification of PIK3CA protein ≥75%)
–	100 to 1000	–	C=CC(=O)N1CCn2nc(-c3nc(N4CCC5(CN(C)C5)C4)c4ccsc4c3-c3c(F)cc(F)cc3OCCOC)cc2C1C (stereo not shown) [Compound 1055]	C (25%≤percent of modification <50%)
–	< 100	–	C=CC(=O)N1CCn2nc(-c3nc(-c4cnc(OCCN(C)C)nc4)c4ccsc4c3-c3c(F)cc(F)cc3OCCOC)cc2C1C (stereo not shown) [Compound 1056]	A (percent of modification of PIK3CA protein ≥75%)
–	< 100	–	C=CC(=O)N1CCn2nc(-c3nc(-c4ccc(C5CN(C)C5)cc4)c4ccsc4c3-c3c(F)cc(F)cc3OCCOC)cc2C1C (stereo not shown) [Compound 1057]	A (percent of modification of PIK3CA protein ≥75%)
–	< 100	–	C=CC(=O)N1CCn2nc(-c3nc(-c4cnc5c(c4)N(C)C(=O)C5)c4ccsc4c3-c3c(F)cc(F)cc3OCCOC)cc2C1C (stereo not shown) [Compound 1058]	A (percent of modification of PIK3CA protein ≥75%)
–	< 100	–	C=CC(=O)N1CCn2nc(-c3nc(-c4ccc(C(=O)NCCN(C)C)cc4)c4ccsc4c3-c3c(F)cc(F)cc3OCCOC)cc2C1C (stereo not shown) [Compound 1059]	A (percent of modification of PIK3CA protein ≥75%)

Source: patent publication US20250230138A1, “COMPOUNDS HAVING A T-STRUCTURE FORMED BY AT LEAST FOUR CYCLES FOR USE IN THE TREATMENT OF CANCER AND OTHER INDICATIONS” (TheRas, Inc., priority 2022, published 2025)
